Measurements taken from patent US20160033699A1, “POLARIZING PLATE” (NITTO DENKO CORPORATION, priority 2014, published 2016).
Where two headings read alike, the source gives them in different places.

Assay: log P value (octanol/water partition coefficient)
Conditions: for log P: octanol/water partition coefficient
Source text: The log P value may be measured in conformity with the shake flask method described in JIS Z 7260. In addition, the log P value may also be determined through calculation using, for example, ChemDraw Ultra manufactured by CambridgeSoft.

## bisphenol A-propylene oxide (2 mole) adduct di(meth)acrylate
  log P: 6.10

## bisphenol A-propylene oxide (4 mole) adduct di(meth)acrylate
  log P: 6.43

## tricyclodecanedimethanol diacrylate [LIGHT ACRYLATE DCP-A]
  log P: 3.05

## C=CC(=O)OCCCCCCCCCCOC(=O)C=C [1,10-decanediol diacrylate]
octanol/water
  logP: 4.1

## p-phenylphenol (meth)acrylate
  log P: 3.98

## bisphenol A di(meth)acrylate
  log P: 5.46

## CSc1ccc(C(=O)C(C)(C)N2CCOCC2)cc1 [IRGACURE 907, 2-methyl-1-(4-methylthiophenyl)-2-morpholinopropan-1-one]
  logP: 2.09

## CCc1cc(CC)c2sc3ccccc3c(=O)c2c1 [KAYACURE DETX-S, diethylthioxanthone]
  log P: 5.12

## neopentyl glycol hydroxypivalate-(meth)acrylic acid adduct
  log P: 3.35
